Target: hERG (human ether-a-go-go-related gene) potassium channel (Homo sapiens, UniProt Q12809)
Assay: QPatch automated patch-clamp hERG activator 4-concentration EC50 assay
Settings: increase of hERG tail current amplitude at 7 second (TL7); 10 uM; hERG stably expressed in CHO cells
Source text: A patch-clamp assay on the QPatch© automated patch clamp system was employed to assesses whether compounds functionally enhance the cardiac delayed rectifier hERG (human ether-a-go-go-related gene) potassium channel. The assay measures electric the current passing through hERG channels that are heterologously expressed in a stable Chinese hamster ovary (CHO) cell line. Channels are opened by a hERG-specific voltage protocol and the compound effect is directly characterized by the activation of the hERG current. EC50 values are obtained from fitting 4-concentration dose response curves (1.1, 3.3, 10 & 30 uM) in triplicates at 4 different sections of the voltage protocol (steady state current amplitude at +10 mV, at +30 mV, peak tail current amplitude and tail current amplitude at 7 second).

Sequence of hERG (human ether-a-go-go-related gene) potassium channel (Q12809 whole entry): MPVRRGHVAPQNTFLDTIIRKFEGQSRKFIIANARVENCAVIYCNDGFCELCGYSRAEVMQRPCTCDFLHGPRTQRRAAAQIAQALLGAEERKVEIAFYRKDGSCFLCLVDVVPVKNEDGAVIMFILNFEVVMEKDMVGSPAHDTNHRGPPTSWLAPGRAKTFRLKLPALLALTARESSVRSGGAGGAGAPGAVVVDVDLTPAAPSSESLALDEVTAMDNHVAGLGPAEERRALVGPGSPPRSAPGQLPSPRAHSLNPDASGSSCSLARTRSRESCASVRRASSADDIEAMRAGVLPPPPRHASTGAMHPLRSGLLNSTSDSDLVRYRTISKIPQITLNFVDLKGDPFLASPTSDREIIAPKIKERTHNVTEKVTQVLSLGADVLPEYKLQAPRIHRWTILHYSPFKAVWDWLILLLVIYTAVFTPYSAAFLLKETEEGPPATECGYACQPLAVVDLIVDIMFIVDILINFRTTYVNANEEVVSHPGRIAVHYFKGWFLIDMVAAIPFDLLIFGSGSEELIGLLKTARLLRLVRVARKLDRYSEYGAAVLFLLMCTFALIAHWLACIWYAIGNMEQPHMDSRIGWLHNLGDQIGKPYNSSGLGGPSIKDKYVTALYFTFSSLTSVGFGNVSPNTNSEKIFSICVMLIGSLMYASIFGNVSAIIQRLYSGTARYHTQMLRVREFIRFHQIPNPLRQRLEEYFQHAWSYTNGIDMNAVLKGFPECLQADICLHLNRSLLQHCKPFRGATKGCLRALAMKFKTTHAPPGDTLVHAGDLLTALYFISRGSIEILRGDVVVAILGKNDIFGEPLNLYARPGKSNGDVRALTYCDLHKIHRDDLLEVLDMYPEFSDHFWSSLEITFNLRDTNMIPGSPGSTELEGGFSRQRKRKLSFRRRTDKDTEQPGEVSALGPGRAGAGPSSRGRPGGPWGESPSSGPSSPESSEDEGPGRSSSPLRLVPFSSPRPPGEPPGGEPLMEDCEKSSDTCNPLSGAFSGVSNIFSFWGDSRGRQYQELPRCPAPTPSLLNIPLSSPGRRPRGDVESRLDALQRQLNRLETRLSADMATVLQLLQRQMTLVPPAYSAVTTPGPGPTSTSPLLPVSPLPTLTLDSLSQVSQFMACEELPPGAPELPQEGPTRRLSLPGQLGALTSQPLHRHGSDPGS

| SMILES | % change@TL7@10 uM [%] |
| --- | --- |
| CCCc1ccc(NCc2ccc3oc(-c4nnn[nH]4)c(C)c3c2)cc1C(F)(F)F [Example 82] | 39 |
| CC(Nc1ccc2c(c1)OC(F)(F)O2)c1ccc2oc(-c3nnn[nH]3)cc2c1 (centres unmarked) [Example 83] | 36 |
| CCCc1ccc(NC(C)c2ccc3oc(-c4nnn[nH]4)cc3c2)cc1Cl (centres unmarked) [Example 84] | 29 |
| O=C(O)c1cc2ccc(CNc3cc(Br)c(Br)c(Br)c3)cc2o1 [Example 85] | 397 |
| O=C(O)c1cc2ccc(CNc3cc(Cl)c(Cl)c(Cl)c3)cc2o1 [Example 86] | 381 |
| O=C(O)c1cc2ccc(CNc3ccc(SC(F)(F)F)c(Cl)c3)cc2o1 [Example 87] | 326 |
| O=C(O)c1cc2ccc(CNc3ccc(OC(F)(F)F)c(Cl)c3)cc2o1 [Example 88] | 274 |
| O=C(O)c1cc2ccc(CNc3ccc4c(c3)OC(F)(F)O4)cc2o1 [Example 89] | 270 |
| O=C(O)c1cc2ccc(CNc3ccc(OC(F)(F)F)c(Br)c3)cc2o1 [Example 90] | 247 |
| O=C(O)c1cc2ccc(CNc3ccc(SC(F)(F)F)c(C(F)(F)F)c3)cc2o1 [Example 91] | 226 |
| O=C(O)c1cc2ccc(CNc3ccc(OC(F)(F)F)c(C(F)(F)F)c3)cc2o1 [Example 92] | 215 |
| CCCc1ccc(NCc2ccc3cc(C(=O)O)oc3c2)cc1Cl [Example 93] | 212 |
| O=C(O)c1cc2ccc(CNc3ccc4c(c3)OC(F)(F)C(F)(F)O4)cc2o1 [Example 94] | 194 |
| CCCc1ccc(NCc2ccc3cc(C(=O)O)oc3c2)cc1C(F)(F)F [Example 95] | 193 |
| CSc1ccc(NCc2ccc3cc(C(=O)O)oc3c2)cc1C(F)(F)F [Example 96] | 185 |
| CSc1cccc(NCc2ccc3cc(C(=O)O)oc3c2)c1 [Example 97] | 159 |
| O=C(O)c1cc2ccc(CNc3ccc(N4CCOCC4)c(Br)c3)cc2o1 [Example 98] | 158 |
| O=C(O)c1cc2ccc(CNc3ccc(S(F)(F)(F)(F)F)cc3)cc2o1 [Example 99] | 157 |
| CCc1ccc(NCc2ccc3cc(C(=O)O)oc3c2)cc1C(F)(F)F [Example 100] | 156 |
| O=C(O)c1cc2ccc(CNc3ccc(C(F)(F)F)c(C(F)(F)F)c3)cc2o1 [Example 101] | 156 |

| SMILES | % change@TL7@10 uM [%] |
| --- | --- |
| Cc1cc(NCc2ccc3cc(C(=O)O)oc3c2)ccc1OC(F)(F)F [Example 102] | 153 |
| O=C(O)c1cc2ccc(CNc3ccc(C(=O)C(F)(F)F)cc3)cc2o1 [Example 103] | 112 |
| O=C(O)c1cc2ccc(CNc3ccc(OC(F)(F)F)c(OC(F)(F)F)c3)cc2o1 [Example 104] | 111 |
| O=C(O)c1cc2ccc(CNc3ccc4c(c3)OCCO4)cc2o1 [Example 105] | 105 |
| O=C(O)c1cc2ccc(CNc3cc(F)c(F)c(Br)c3)cc2o1 [Example 106] | 90 |
| O=C(O)c1oc2cc(CNc3ccc(OC(F)(F)F)c(Br)c3)ccc2c1C(F)(F)F [Example 107] | 85 |
| O=C(O)c1cc2ccc(CNc3ccc(OCC(F)(F)F)c(Cl)c3)cc2o1 [Example 108] | 82 |
| O=C(O)c1cc2ccc(CNc3cccc(N4CCOCC4)c3)cc2o1 [Example 109] | 81 |
| O=C(O)c1cc2ccc(CNc3cc(Cl)c(F)c(C(F)(F)F)c3)cc2o1 [Example 110] | 76 |
| CCCc1ccc(NCc2ccc3c(C(F)(F)F)c(C(=O)O)oc3c2)cc1C(F)(F)F [Example 111] | 65 |
| O=C(O)c1cc2ccc(CNc3ccc(C(F)(F)F)cn3)cc2o1 [Example 112] | 53 |
| O=C(O)c1cc2ccc(CNc3ccc(SC(F)(F)F)cc3)cc2o1 [Example 113] | 53 |
| Cc1nc2cc(NCc3ccc4cc(C(=O)O)oc4c3)ccc2s1 [Example 114] | 45 |
| COc1ccc(NCc2ccc3cc(C(=O)O)oc3c2)cc1Cl [Example 115] | 41 |
| O=C(O)c1cc2ccc(CNc3cc(C(F)(F)F)cc(C(F)(F)F)c3)cc2o1 [Example 116] | 31 |
| COc1ccc(NCc2ccc3cc(C(=O)O)oc3c2)cc1C(F)(F)F [Example 117] | 28 |
| O=C(O)c1cc2ccc(CNc3ccc(OCC(F)(F)F)c(C(F)(F)F)c3)cc2o1 [Example 118] | 27 |
| O=C(O)c1cc2ccc(CNc3cc(Cl)nc(Cl)c3)cc2o1 [Example 119] | 22 |
| O=C(O)c1cc2cc(CNc3cc(Cl)c(Cl)c(Cl)c3)ccc2o1 [Example 120] | 282 |
| CCCc1ccc(NCc2ccc3oc(C(=O)O)cc3c2)cc1Cl [Example 121] | 210 |

| SMILES | % change@TL7@10 uM [%] |
| --- | --- |
| CCCc1ccc(NCc2ccc3oc(C(=O)O)cc3c2)cc1C(F)(F)F [Example 122] | 184 |
| O=C(O)c1cc2cc(CNc3ccc(Cl)c(Cl)c3)ccc2o1 [Example 123] | 183 |
| CCc1ccc(NCc2ccc3oc(C(=O)O)cc3c2)cc1C(F)(F)F [Example 124] | 167 |
| CCCc1cc(NCc2ccc3oc(C(=O)O)cc3c2)ccc1C(F)(F)F [Example 125] | 138 |
| CCCc1cc(NCc2ccc3oc(C(=O)O)cc3c2)ccc1Cl [Example 126] | 64 |
| Fc1cc2oc(-c3nnn[nH]3)cc2cc1CNc1ccc(OCC(F)(F)F)c(C(F)(F)F)c1 [Example 127] | 268 |
| CCCc1ccc(NCc2cc3cc(-c4nnn[nH]4)oc3cc2F)cc1C(F)(F)F [Example 128] | 142 |
| Fc1cc2oc(-c3nnn[nH]3)cc2cc1CNc1ccc(Cl)c(Cl)c1 [Example 129] | 154 |
| Fc1cc2oc(-c3nnn[nH]3)cc2cc1CNc1ccc(OC(F)(F)F)c(C(F)(F)F)c1 [Example 130] | 220 |
| Fc1cc2oc(-c3nnn[nH]3)cc2cc1CNc1cc(C(F)(F)F)c(Br)c(C(F)(F)F)c1 [Example 133] | 326 |
| FC(F)Oc1ccc(NCc2cc3cc(-c4nnn[nH]4)oc3cc2Cl)cc1C(F)(F)F [Example 134] | 217 |
| FC(F)(F)COc1ccc(NCc2cc3cc(-c4nnn[nH]4)oc3cc2Cl)cc1C(F)(F)F [Example 135] | 181 |
| FC(F)(F)c1cc(NCc2cc3cc(-c4nnn[nH]4)oc3cc2Cl)cc(C(F)(F)F)c1Br [Example 137] | 166 |
| FC(F)(F)c1ccc(NCc2cc3cc(-c4nnn[nH]4)oc3cc2Cl)cc1Cl [Example 138] | 196 |
| Clc1ccc(NCc2cc3cc(-c4nnn[nH]4)oc3cc2Cl)cc1Cl [Example 139] | 112 |
| Fc1c(CNc2ccc(OC(F)(F)F)c(Br)c2)ccc2oc(-c3nnn[nH]3)cc12 [Example 140] | 290 |
| Fc1c(CNc2ccc(OCC(F)(F)F)c(C(F)(F)F)c2)ccc2oc(-c3nnn[nH]3)cc12 [Example 142] | 188 |
| Fc1c(CNc2cc(C(F)(F)F)c(Br)c(C(F)(F)F)c2)ccc2oc(-c3nnn[nH]3)cc12 [Example 143] | 193 |
| Fc1cc(CNc2ccc(OCC(F)(F)F)c(C(F)(F)F)c2)cc2cc(-c3nnn[nH]3)oc12 [Example 147] | 151 |
